Source: US7285618B1, “Polypeptides having neutrophil stimulating activity” (Japan Tobacco Inc., priority 2000, dated 2007)
Values belong to the compound of their own block, whether it stands above or below them. Where no end group is shown, it is not given here.

Assays:
[1] = test system: differentiated HL60 cells; type: cell-based, human; conditions: for secretion of β-HA upon stimulation after PTX treatment: cells treated with 50 ng/ml PTX for 16 hours; for Percentage of maximum secretion activity (%/control): control = β-HA released upon 10 μM fMLP; for β-HA secretion from differentiated HL60 cells (%/total): total = β-HA released with 0.05% Triton X-100
Experimental: a. Cultivation of HL60 Cells and Induction to the Differentiated Neutrophil-Like Cells For cultivation, heat-inactivated FCS (final concentration; 10%), streptomycin (final concentration; 100 mg/l), penicillin G (final concentration of 10^5 units/l) and RPMI-1640 culture solution containing 10 mM Hepes (pH 7.4) were used. Cells were cultivated at a cell density of 2×10^5-1.5×10^6 cells/ml in a plastic flask (80 cm^2, 260 ml, Nunc) at 37° C. under stationary conditions with a 5% of CO2 concentration and a 100% of humidity. […] c. […] Measuring β-HA Enzyme Activity The amount of β-HA secreted into the reaction supernatant was determined by measuring the absorbance at 415 nm of p-nitrophenol that was generated by an enzymatic reaction involving p-nitrophenyl N-acetyl-β-D-glucosaminide as a substrate. To be specific, 90 μl of the reaction supernatant was transferred to a 96-well Immuno plate (Nunc) and 60 μl of a substrate solution (10 mM p-nitrophenyl N-acetyl-β-D-glucosaminide/40 mM citrate, 70 mM Na2HPO4, pH 4.5) was added to initiate an enzymatic reaction. Following a 1-hr reaction at 37° C., 100 μl of a reaction quencher (400 mM glycine, pH 10.7) was added to stop the reaction and the absorbance at 415 nm was measured. As a control, cells were treated with Triton X-100 at a final concentration of 0.05% and the amount of β-HA in the supernatant was measured. As another control, the amount of β-HA secreted from cells upon stimulation with fMLP at a final concentration of 10 μM was measured.

[2] = test system: monocyte and lymphocyte mixed cells; assay: β-HA secretion from monocyte and lymphocyte mixed cells; type: cell-based, human
[3] = test system: differentiated HL60 cells; assay: Intracellular Ca2+ concentration (fura-2), differentiated HL60 cells; type: cell-based, human; conditions: for increase of intracellular Ca2+ concentration in the absence of extracellular Ca2+: absence of Ca2+ (−) versus presence (+); for increase in intracellular Ca2+ concentration upon stimulation after PTX treatment: cells treated with 50 ng/ml PTX for 16 hours; for intracellular Ca2+ concentration: differentiated HL60 cells (+); for intracellular Ca2+ concentration with or without extracellular Ca2+: extracellular Ca2+ present or not
Experimental: The differentiated HL60 cells or undifferentiated HL60 cells were washed twice with a Hepes-Na solution (140 mM NaCl, 4 mM KCl, 1 mM NaH2PO4, 1 mM MgCl2, 1.25 mM CaCl2, 5 mM Hepes, 11 mM glucose, 0.2% BSA, pH 7.4). Then, Ca^2+ sensitive fluorescence reagent, fura-2/AM, was added to the cell suspension (4 ml: final concentration, 4 μM). The reaction mixture was then shaken gently at room temperature for 60 minutes, shielded from light in order to incorporate fura-2 into the HL60 cells. Subsequently, the cells were washed twice with a Hepes-Na solution and a cell suspension was prepared at a final cell density of 1.0×10^6 cells/ml. One milliliter of the cell suspension was put into reaction cuvettes and stimulated with various samples under stirring at 30° C. Ratios of fluorescence intensity at 500 nm (F) for an excitation wavelength at 340 nm to that at 380 nm were measured with a fluorimeter (CAF-100, Japan Spectroscopic Co., Ltd.) and [Ca^2+]i was calculated following the formula: [Ca^2+]i(nM)=K×{(F−Fmin)/(Fmax−F)}×A/B, wherein
Fmax: a ratio of fluorescence intensity at 500 nm for an excitation wavelength at 340 nm to that at 380 nm after all cells were solubilized with 0.1% Triton X-100;
Fmin: a ratio of fluorescence intensity at 500-nm for an excitation wavelength at 340 nm to that at 380 nm after the whole calcium was chelated with 4 mM EGTA;
A: fluorescence intensity at 500-nm for an excitation wavelength at 380 nm, when all the calcium was chelated with EGTA;
B: fluorescence intensity at 500-nm for an excitation wavelength at 380 nm, when all cells were solubilized with Triton X-100;
K: 224 (nM) (the dissociation constant of fura-2).

[4] = biological target: T1, fMLP receptor (Homo sapiens, UniProt P21462); assay: [3H]fMLP binding to the fMLP receptor on differentiated HL60 cells; conditions: [3H]fMLP 50 nM, 22° C., 60 minutes; COSP-1 up to 10 μM
T1 construct: fMLP receptors are expressed on the surfaces of the cells as they differentiate into neutrophil-like cells; endogenous in cells; host or cells: HL60 cells differentiated with db-cAMP (whole cells)
T1 sequence (P21462 1-350): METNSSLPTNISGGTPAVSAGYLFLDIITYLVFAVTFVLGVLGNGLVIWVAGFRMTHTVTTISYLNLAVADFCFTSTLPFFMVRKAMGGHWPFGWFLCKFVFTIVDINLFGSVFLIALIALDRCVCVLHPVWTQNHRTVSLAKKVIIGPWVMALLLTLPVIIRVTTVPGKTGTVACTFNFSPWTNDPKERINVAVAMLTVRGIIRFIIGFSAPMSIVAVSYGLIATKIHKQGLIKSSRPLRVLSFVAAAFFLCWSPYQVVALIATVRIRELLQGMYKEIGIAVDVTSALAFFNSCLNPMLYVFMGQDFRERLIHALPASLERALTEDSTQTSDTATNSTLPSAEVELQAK
Experimental: The binding study of COSP-1 to the fMLP receptor was done using the differentiated HL60 cells. The differentiated HL60 cells were washed twice with HBHS. Then, the cells were suspended at 3.1×10^7 cells/ml and this suspension was transferred to tubes (2.5×10^6 cells/80 μl) and incubated at 22° C. for 10 minutes. Subsequently, various concentrations of COSP-1 or fMLP (10 μl) were added and incubated at 22° C. for 5 minutes. Thereafter, 10 μl of [^3H]fMLP (final concentration at 50 nM) was added and reaction was performed at 22° C. for 60 minutes. By adding 500 μl of ice-cooled PBS-BSA (10 mM phosphate, 120 mM NaCl, 0.5% BSA), the reaction was stopped. The treated cell suspension was then passed through a glass-fiber filter (Whatman GF/C) and the filter was washed three times with ice-cooled PBS-BSA (2 ml) to remove [^3H]fMLP not bound to the cells. The glass-fiber filter was dried and a scintillant was added to a solution for radioactivity measurement.
The measurements of binding of the fMLP to the fMLP receptors were expressed as the percentage (%/total) for a maximum binding which was shown as the radioactivity of [^3H]fMLP having specific binding to the receptors in the absence of an unlabelled ligand.

[5] = test system: G protein (Gi); assay: GTPase activity of purified Gi reconstituted on a phospholipid membrane; type: biochemical, rabbit; conditions: 3 μM
Description: G protein (Gi), which is present in neutrophils and involved in […] of fMLP, was extracted from the rabbit liver and purified (J. Biol. Chem. 267, 16237-16243, 1992). The purified Gi was reconstituted on a phospholipid membrane, and it was challenged by fCyt b (1-15) or COSP-1. We measured GTPase activity for these stimulations.

[6] = test system: differentiated HL60 cells; assay: LDH leakage from HL60 cells
Experimental: The differentiated HL60 cells and human leukocyte cells were washed three times with ice-cooled 0.1% BSA containing Hepes buffered Hank's solution (HBHS; 10 mM Hepes, 136.9 mM NaCl, 5.4 mM KCl, 1.2 mM CaCl2, 0.44 mM KH2PO4, 0.49 mM MgCl2, 0.41 mM MgSO4, 0.34 mM Na2HPO4, 5.5 mM glucose, 4.2 mM NaHCO3, pH 7.4). A cell suspension was prepared for each cell type at 5.5×10^6 cells/ml. Cytochalasin B and DNase I were then added to each cell suspension at a final concentration of 5 μg/ml. Ninety μl of each cell suspension was then transferred to an ice-cooled tube (5.0×10^5 cells/tube) and incubated at 37° C. for 10 minute. To each tube, either one of the fractions of polypeptide (or extract) in solution (10 μl) was added and incubated at 37° C. for 10 minutes to stimulate the cells. Immediately after the treatment, 200 μl of ice-cooled reaction quenching buffer (25 mM Tris, 123 mM NaCl, 2.7 mM KCl, pH 7.4) was added to the cell suspensions to stop the stimulation. Thereafter, the tubes were spun down at 4° C. for 60 seconds to precipitate the cell pellets and the β-HA activity and the lactate dehydrogenase (LDH) activity in the supernatant were measured.
The amount of LDH secreted into the reaction mixture was determined by measuring the absorbance (340 nm) of NADH generated by reduction of that NAD involves dehydrogenation of lactate. Reaction was initiated by adding a 400 μl of a substrate-buffer solution (125 mM 2-amino-2-methyl-1-propanol, 125 mM lithium lactate, 6.25 mM NAD, pH 9.5) to a 100 μl of the reaction supernatant. Following a 1-hr incubation at 37° C., the mixture was quenched in ice water to stop the reaction and the absorbance at 340 nm was measured.
The LDH enzyme activity secreted in the reaction mixture was expressed as the percentage of the total enzyme activity in cells (%/total) which was the enzyme activity of LDH released upon disruption of the cells with 0.05% Triton X-100.

Compound: CSCC[C@H](NC=O)C(=O)N[C@@H](CC(C)C)C(=O)N[C@@H](Cc1ccccc1)C(=O)O [fMLP, formyl methionyl-leucyl-phenylalanine, reference compound]
secretion of β-HA upon stimulation after PTX treatment [1]: almost completely inhibited
Percentage of maximum secretion activity (%/control) [1]: 100 %/control
β-HA secretion from differentiated HL60 cells (%/total) [1]: 67.4 %/total
β-HA secretion from monocyte and lymphocyte mixed cells (%/total) [2]: 21.8 ± 5.3 %/total
secretion of β-HA in the monocyte and lymphocyte mixed cells ([2]; stimulation with 10 μM): 21.8±5.3%
increase of intracellular Ca2+ concentration in the absence of extracellular Ca2+ [3]: reduced
increase in intracellular Ca2+ concentration upon stimulation after PTX treatment [3]: almost completely inhibited
intracellular Ca2+ concentration [3]: increased
intracellular Ca2+ concentration with or without extracellular Ca2+ [3]: increased irrespective of whether extracellular Ca^2+ was present or not

stimulation of the GTPase activity of Gi [5]: about 6 fold
LDH leakage out of the cells ([6]; differentiated HL60 cells, Example 4): no LDH was found to leak out
Compound: LSFLIPAGWVLSHLDHYKRSSAA-OH [COSP-1]
promoted secretion of β-HA under Boc-MLF treatment ([1]; Boc-MLF treatment, data not shown): significantly suppressed
secretion of β-HA upon stimulation after PTX treatment [1]: almost completely inhibited
Percentage of maximum secretion activity (%/control) [1]: 93.6 ± 2.8 %/control
β-HA secretion from differentiated HL60 cells (%/total) [1]: 63.1 %/total
increase of intracellular Ca2+ concentration in the absence of extracellular Ca2+ [3]: reduced
increase in intracellular Ca2+ concentration upon stimulation after PTX treatment [3]: almost completely inhibited
intracellular Ca2+ concentration [3]: increased
intracellular Ca2+ concentration with or without extracellular Ca2+ [3]: increased irrespective of whether extracellular Ca^2+ was present or not
inhibition of the specific binding between [3H]fMLP and fMLP receptors [4]: not by COSP-1 even when its final concentration was reacted to 10 μM
LDH leakage from the HL60 cells ([6]; Example 6): neither of COSP-1 and fMLP caused LDH leakage
